In patent US20150004134A1, “TREATMENT OF CANCER WITH HETEROCYCLIC INHIBITORS OF GLUTAMINASE” (Calithera Biosciences, Inc., priority 2012, published 2015):

System: P493-6 (myc "on") cells
Assay: Cell Proliferation Assay
Type: cell-based
Conditions: P493-6, 72 h, read-out: Cell prolif P493 72 h IC50, P493 cells, 72 h
Protocol: P493-6 (myc “on”) cells were maintained in growth media (RPMI-1640, 10% FBS, 2 mM glutamine, 100 units/ml Penicillin and 100 μg/ml streptomycin) at 37° C. with 5% CO2. For compound assay, P493-6 cells were plated in 96-well V-bottom plates on the day of compound addition in 50 μl of growth media at a cell density of 200,000 cells/ml (10,000 cells/well). Compounds were serially diluted in 100% DMSO at 200-times the final concentration. Compounds were diluted 100-fold into growth media and then 50 μl of this mixture was added to cell plates making the final concentration of DMSO 0.5%. Cells were incubated with compound for 72 hrs at 37° C. with 5% CO2 and analyzed for antiproliferative effects either by Cell Titer Glo (Promega) or FACS analysis using the Viacount (Millipore) kit on the Guava instrument.

Row | SMILES | IC50 [µM]
1 | O=C(Nc1nnc(CCCCc2nnc(NC(=O)C3COc4ccccc43)s2)s1)C1COc2ccccc21 (stereo not shown) [Compound 135] | 0.49
2 | O=C(Nc1nnc(CCCCc2nnc(NC(=O)C3Oc4ccccc4O3)s2)s1)C1Oc2ccccc2O1 [Compound 136] | 4.7
3 | O=C(N[C@@H](CO)C(=O)Nc1nnc(CCSCCc2nnc(NC(=O)[C@H](CO)NC(=O)OCc3ccccc3)s2)s1)OCc1ccccc1 [Compound 138] | 2.7
4 | N[C@@H](CO)C(=O)Nc1nnc(CCCCc2nnc(NC(=O)[C@@H](N)CO)s2)s1 [Compound 140] | > 50
5 | CC[C@](O)(C(=O)Nc1nnc(CCSCCc2nnc(NC(=O)[C@@](O)(CC)c3ccccc3)s2)s1)c1ccccc1 [Compound 141] | 4.3
6 | CC[C@](O)(C(=O)Nc1nnc(CCCCc2nnc(NC(=O)[C@@](O)(CC)c3ccccc3)s2)s1)c1ccccc1 [Compound 143] | 2.2
7 | O=C(Nc1nnc(CCCCc2nnc(NC(=O)[C@@H](O)Cc3ccccc3)s2)s1)[C@@H](O)Cc1ccccc1 [Compound 146] | 0.46
8 | CO[C@@H](C(=O)Nc1nnc(CCCCc2nnc(NC(=O)[C@H](OC)c3ccccc3)s2)s1)c1ccccc1 [Compound 147] | 0.37
9 | CO[C@H](C(=O)Nc1nnc(CCCCc2nnc(NC(=O)[C@@H](OC)c3ccccc3)s2)s1)c1ccccc1 [Compound 148] | 0.39
10 | CC(CO)(CO)C(=O)Nc1nnc(CCCCc2nnc(NC(=O)C(C)(CO)CO)s2)s1 [Compound 151] | > 50
11 | CC(CO)(CO)C(=O)Nc1nnc(CCCCc2nnc(NC(=O)Cc3cccc(F)c3)s2)s1 [Compound 152, N,N′-(5-(4-(5-(2-(3-fluorophenyl)acetamido)-1,3,4-thiadiazol-2-yl)butyl)-1,3,4-thiadiazol-2-yl)-3-hydroxy-2-(hydroxymethyl)-2-methylpropanamide] | 1.1
12 | O=C(C[C@@H](O)C(=O)O)Nc1nnc(CCCCc2nnc(NC(=O)C[C@@H](O)C(=O)O)s2)s1 [Compound 154] | > 50
13 | N#Cc1cccc(CC(=O)Nc2nnc(CCSCCc3nnc(NC(=O)Cc4cccc(C#N)c4)s3)s2)c1 [Compound 155] | 1.9
14 | COc1cccc(CC(=O)Nc2nnc(CCSCCc3nnc(NC(=O)Cc4cccc(OC)c4)s3)s2)c1 [Compound 156] | 0.63
15 | COc1ccc(CC(=O)Nc2nnc(CCSCCc3nnc(NC(=O)Cc4ccc(OC)c(OC)c4)s3)s2)cc1OC [Compound 157] | 0.18
16 | CS(=O)(=O)c1cccc(CC(=O)Nc2nnc(CCSCCc3nnc(NC(=O)Cc4cccc(S(C)(=O)=O)c4)s3)s2)c1 [Compound 158] | 8.1
17 | COc1ccc(CC(=O)Nc2nnc(CCCCc3nnc(NC(=O)Cc4ccc(OC)c(OC)c4)s3)s2)cc1OC [Compound 160] | > 50
18 | COc1ccc(CC(=O)Nc2nnc(CCSCCc3nnc(NC(=O)Cc4ccc(OC)cc4)s3)s2)cc1 [Compound 161] | 1.4
19 | CN(C)c1ccc(CC(=O)Nc2nnc(CCSCCc3nnc(NC(=O)Cc4ccc(N(C)C)cc4)s3)s2)cc1 [Compound 162] | 0.15
20 | CN(C)c1ccc(CC(=O)Nc2nnc(CCCCc3nnc(NC(=O)Cc4ccc(N(C)C)cc4)s3)s2)cc1 [Compound 164] | 0.13
21 | COCC(C(=O)Nc1nnc(CCCCc2nnc(NC(=O)C(COC)c3ccccc3)s2)s1)c1ccccc1 (stereo not shown) [Compound 165] | 33

Row | SMILES | IC50 [µM]
22 | O=C(Nc1nnc(CCCCc2nnc(NC(=O)C3(c4ccccc4)CCOCC3)s2)s1)C1(c2ccccc2)CCOCC1 [Compound 166] | 6.8
23 | O=C(Nc1nnc(CCCCc2nnc(NC(=O)C3(c4cccs4)CCOCC3)s2)s1)C1(c2cccs2)CCOCC1 [Compound 167] | 34
24 | O=C(Nc1nnc(CCCCc2nnc(NC(=O)C3(c4ccccc4)CC3)s2)s1)C1(c2ccccc2)CC1 [Compound 168] | > 50
25 | O=C(Nc1nnc(CCCCc2nnc(NC(=O)[C@H](O)Cc3ccccc3)s2)s1)[C@H](O)Cc1ccccc1 [Compound 169] | 3.4
26 | O=C(Nc1nnc(CCCc2nnc(NC(=O)C(O)Cc3ccccc3)s2)s1)C(O)Cc1ccccc1 (stereo not shown) [Compound 170] | 9.3
27 | O=C(Nc1nnc(CCCc2nnc(NC(=O)C(O)c3ccccc3)s2)s1)C(O)c1ccccc1 (stereo not shown) [Compound 172] | 3.7
28 | CC(=O)OC(C(=O)Nc1nnc(CCCCc2nnc(NC(=O)C(OC(C)=O)c3ccccc3)s2)s1)c1ccccc1 (stereo not shown) [Compound 173] | 0.76
29 | O=C(Nc1nnc(CCCCc2nnc(NC(=O)C(O)c3ccccc3)s2)s1)C(O)c1ccccc1 (stereo not shown) [Compound 174] | 0.44
30 | N[C@H](C(=O)Nc1nnc(CCSCCc2nnc(NC(=O)[C@@H](N)c3ccccc3)s2)s1)c1ccccc1 [Compound 175] | 23
31 | O=C(Nc1nnc(CCCc2nnc(NC(=O)C(CO)c3ccccc3)s2)s1)C(CO)c1ccccc1 (stereo not shown) [Compound 176] | 1.5
32 | O=C(CC(C(=O)O)c1ccccc1)Nc1nnc(CCCCc2nnc(NC(=O)CC(C(=O)O)c3ccccc3)s2)s1 (stereo not shown) [Compound 177] | > 50
33 | COC(=O)C(CC(=O)Nc1nnc(CCCCc2nnc(NC(=O)CC(C(=O)O)c3ccccc3)s2)s1)c1ccccc1 (stereo not shown) [Compound 178] | > 50
34 | O=C(CCC(C(=O)O)c1ccccc1)Nc1nnc(CCSCCc2nnc(NC(=O)CCC(C(=O)O)c3ccccc3)s2)s1 (stereo not shown) [Compound 179] | > 50
35 | O=C(Nc1nnc(CCSCCc2nnc(NC(=O)c3ccccc3CO)s2)s1)c1ccccc1CO [Compound 180] | > 50
36 | O=C(Cc1ccccc1CO)Nc1nnc(CCSCCc2nnc(NC(=O)Cc3ccccc3CO)s2)s1 [Compound 181, N,N′-(5,5′-(thiobis(ethane-2,1-diyl))bis(1,3,4-thiadiazole-5,2-diyl))bis(2-(2-(hydroxymethyl)phenyl)acetamide)] | 30
37 | CS(=O)(=O)c1ccc(CC(=O)Nc2nnc(CCSCCc3nnc(NC(=O)Cc4ccc(S(C)(=O)=O)cc4)s3)s2)cc1 [Compound 182] | > 50
38 | CC(C)(C)OC(=O)Nc1ccc(CC(=O)Nc2nnc(CCSCCc3nnc(NC(=O)Cc4ccc(NC(=O)OC(C)(C)C)cc4)s3)s2)cc1 [Compound 185] | 0.09
39 | N[C@@H](C(=O)Nc1nnc(CCCCc2nnc(NC(=O)[C@H](N)c3ccccc3)s2)s1)c1ccccc1 [Compound 186] | 13
40 | N[C@H](C(=O)Nc1nnc(CCCCc2nnc(NC(=O)[C@@H](N)c3ccccc3)s2)s1)c1ccccc1 [Compound 187] | 21
41 | O=C(Nc1nnc(CCCCc2nnc(NC(=O)C(CO)c3cccs3)s2)s1)C(CO)c1cccs1 (stereo not shown) [Compound 190] | 0.49
42 | CC(C)(C)OC(=O)Nc1ccc(CC(=O)Nc2nnc(CCCCc3nnc(NC(=O)Cc4ccc(NC(=O)OC(C)(C)C)cc4)s3)s2)cc1 [Compound 192] | 0.03

Row | SMILES | IC50 [µM]
43 | Nc1ccc(CC(=O)Nc2nnc(CCSCCc3nnc(NC(=O)Cc4ccc(N)cc4)s3)s2)cc1 [Compound 195] | 1.3
44 | Nc1ccc(CC(=O)Nc2nnc(CCCCc3nnc(NC(=O)Cc4ccc(N)cc4)s3)s2)cc1 [Compound 196] | 0.61
45 | NS(=O)(=O)c1ccc(CC(=O)Nc2nnc(CCCCc3nnc(NC(=O)Cc4ccc(S(N)(=O)=O)cc4)s3)s2)cc1 [Compound 198] | > 50
46 | O=C(Cc1ccccc1)Nc1nnc(CCSCc2nnc(NC(=O)Cc3ccccc3)s2)s1 [Compound 199] | 0.17
47 | COCCOC(C(=O)Nc1nnc(CCCCc2nnc(NC(=O)C(OCCOC)c3ccccc3)s2)s1)c1ccccc1 (stereo not shown) [Compound 203] | 1.7
48 | COCC(C(=O)Nc1nnc(CCSCCc2nnc(NC(=O)C(COC)c3ccccc3)s2)s1)c1ccccc1 (stereo not shown) [Compound 204] | 2.4
49 | O=C(Cc1ccccc1CO)Nc1nnc(CCCCc2nnc(NC(=O)Cc3ccccc3CO)s2)s1 [Compound 208] | 9
50 | C=CCC(C(=O)Nc1nnc(CCCCc2nnc(NC(=O)C(CC=C)c3ccccc3)s2)s1)c1ccccc1 (stereo not shown) [Compound 209] | 22
51 | O=C(Nc1nnc(CCCCc2nnc(NC(=O)[C@@H](O)c3ccccc3Cl)s2)s1)[C@@H](O)c1ccccc1Cl [Compound 210] | 0.42
52 | O=C(Nc1nnc(CCCCc2nnc(NC(=O)C(O)c3cccc(F)c3F)s2)s1)C(O)c1cccc(F)c1F (stereo not shown) [Compound 211] | 1
53 | O=C(Cn1ccc2ccccc21)Nc1nnc(CCSCCc2nnc(NC(=O)Cn3ccc4ccccc43)s2)s1 [Compound 213] | 4.4
54 | NCCC(C(=O)Nc1nnc(CCSCCc2nnc(NC(=O)C(CN)c3ccccc3)s2)s1)c1ccccc1 (stereo not shown) [Compound 214] | 1.2
55 | N#Cc1ccc(CC(=O)Nc2nnc(CCSCCc3nnc(NC(=O)Cc4ccc(C#N)cc4)s3)s2)cc1 [Compound 216] | > 50
56 | NS(=O)(=O)c1ccc(CC(=O)Nc2nnc(CCSCCc3nnc(NC(=O)Cc4ccc(S(N)(=O)=O)cc4)s3)s2)cc1 [Compound 217] | > 50
57 | COc1ccccc1CC(=O)Nc1nnc(CCSCCc2nnc(NC(=O)Cc3ccccc3OC)s2)s1 [Compound 219] | 0.57
58 | COC(=O)C(C(=O)Nc1nnc(CCCCc2nnc(NC(=O)C(C(=O)OC)c3ccccc3)s2)s1)c1ccccc1 (stereo not shown) [Compound 220] | 0.31
59 | O=C(Nc1nnc(CCCCc2nnc(NC(=O)[C@@H](O)[C@H](O)c3ccccc3)s2)s1)[C@@H](O)[C@H](O)c1ccccc1 [Compound 226] | > 50
60 | Nc1nnc(CCCCc2nnc(NC(=O)C(CO)c3ccccc3)s2)s1 (stereo not shown) [Compound 227] | 3.3
61 | O=C(CCN1CCOCC1)OCC(C(=O)Nc1nnc(CCCCc2nnc(NC(=O)C(CO)c3ccccc3)s2)s1)c1ccccc1 (stereo not shown) [Compound 228, 3-((5-{4-[5-(3-hydroxy-2-phenylpropanamido)-1,3,4-thiadiazol-2-yl]butyl}-1,3,4-thiadiazol-2-yl)amino)-3-oxo-2-phenylpropyl 3-morpholinopropanoate] | 0.13
